Results as given in patent US8642540B2 (Zealand Pharma A/S, priority 2008, dated 2014).
Like-named read-outs stand apart in the source and are kept apart here. Non-standard residues stand in square brackets, D forms with d. Residues, ends and D or L forms follow the SMILES beside them.

Assays:
[1] = system: primary rat adipocyte cultures; format: cell-based; conditions: for Stimulation of lipolysis EC50 / lipolysis potency relative to OXM: primary rat adipocyte cultures; for Stimulation of lipolysis EC50: 60 min at 37° C., glycerol formed
Procedure: Adipocytes were isolated from epididymal fat dissected from normal young adult Sprague-Dawley rats. The fat lumps were minced, incubated and shaken (220 rpm) with collagenase (1 mg/ml) in Krebs-Ringer buffer containing 4% BSA (KRB-BSA) for 60 minutes at 37° C. The suspension was filtered through a nylon filter (160 μm pore size) and the filtrate centrifuged at 200×g for 3 min. The subjacent medium beneath the upper floating layer of adipocytes was removed with a Pasteur-pipette. The adipocytes were washed 3 times in KRB-BSA buffer by re-suspension and centrifugation. The adipocytes were re-suspended in KRB-BSA, mixed, incubated in and shaken with test compounds in 96-deep well plates (50,000 cells/well) in a total volume of 1 ml at 37° C. for 60 min. The plates were placed on ice for at least 10 min after incubation followed by centrifugation at 200×g for 3 min. 300 μl of the buffer beneath the adipocyte layer were collected in a 96-deep well plate. This process was repeated two more times and the 3 extracts collected from each culture pooled together.

[2] = target: T1, human Glucagon-R (Homo sapiens, UniProt P47871); test: Glucagon receptor efficacy assay (cAMP in HEK293 cells); format: cell-based; conditions: HEK293 cells expressing human Glucagon-R, 15 min at 37° C., read-out: GLUR EC50
T1 construct: expressed in transfected cells
Procedure: (§1) The 5′-end primers additionally encoded a near Kozak consensus sequence to ensure efficient translation.
(§2) 48 hr after transfection cells were seeded for limited dilution cloning and selected with 1 mg/ml G418 in the culture medium.
(§3) On the day of analysis, growth medium was removed and the cells washed once with 200 μl Tyrode buffer. Cells were incubated in 100 μl Tyrode buffer containing increasing concentrations of test peptides, 100 μM IBMX, and 6 mM glucose for 15 min at 37° C. The reaction was stopped by addition of 25 μl 0.5 M HCl and incubated on ice for 60 min. The cAMP content was estimated using the FlashPlate® cAMP kit from Perkin-Elmer.

[3] = target: T2, human GLP-1-R (Homo sapiens, UniProt P43220); test: GLP-1 receptor efficacy assay (cAMP in HEK293 cells); format: cell-based; conditions: HEK293 cells expressing human GLP-1-R, 15 min at 37° C.
T2 construct: expressed in transfected cells
Procedure: as §1, §2, §3

[4] = system: diet induced obese mice; test: 28 day treatment of diet induced obese (DIO) mice, body weight gain; format: in vivo, mouse; conditions: C57Bl/6 male mice on high fat diet, 500 nmol/kg b.i.d. s.c., 28 days
Procedure: Effects of 28 Day Treatment of Diet Induced Obese (DIO) Mice with ZP2495 (SEQ ID NO: 5) on Body Weight Gain Four weeks before drug treatments, C57Bl/6 male mice (7 weeks) (N=10-12 animals in each group) were put on high fat diet (HFD) and their day-night cycle reversed with lights On/Off at 2000/0800 hour. Experimental animals were conditioned to treatment by daily injections (s.c.) of 0.1 ml vehicle and acclimatized to handling by weighing them twice a week one week before start of drug administrations. The day before start of experiment, mice were stratified into groups with similar body weight (BW) and the next day groups of stratified mice were treated (b.i.d.; s.c.) with ZP2495 (SEQ ID NO: 5) (500 nmol/kg) or vehicle. A non-obese control group maintained on regular chow was treated with vehicle in the same treatment regime as the DIO groups. Body weights were recorded daily and used to administer the body weight-corrected doses of peptide throughout the study. Animals were fasted overnight before sacrifice. […] Body weight gains throughout the treatment period were calculated for each animal by subtracting its weight at the initiation of treatment.
The effects of treatment on body weight gain were assessed by 2-way ANOVA with repeated measures and Bonferoni post-hoc analyses were using with GraphPad Prism version 4. […]

T1 sequence (P47871 26-477): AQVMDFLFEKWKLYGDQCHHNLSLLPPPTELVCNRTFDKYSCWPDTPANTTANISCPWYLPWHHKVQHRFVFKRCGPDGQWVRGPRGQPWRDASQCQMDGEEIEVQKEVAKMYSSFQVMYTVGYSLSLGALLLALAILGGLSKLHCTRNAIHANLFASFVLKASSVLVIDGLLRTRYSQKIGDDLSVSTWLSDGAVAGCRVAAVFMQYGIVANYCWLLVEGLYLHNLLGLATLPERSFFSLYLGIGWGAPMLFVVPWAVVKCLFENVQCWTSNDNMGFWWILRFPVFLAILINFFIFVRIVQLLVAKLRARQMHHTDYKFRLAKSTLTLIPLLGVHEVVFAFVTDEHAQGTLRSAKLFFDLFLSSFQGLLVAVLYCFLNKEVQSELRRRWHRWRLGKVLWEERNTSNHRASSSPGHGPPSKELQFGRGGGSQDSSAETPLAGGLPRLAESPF
T2 sequence (P43220 24-463): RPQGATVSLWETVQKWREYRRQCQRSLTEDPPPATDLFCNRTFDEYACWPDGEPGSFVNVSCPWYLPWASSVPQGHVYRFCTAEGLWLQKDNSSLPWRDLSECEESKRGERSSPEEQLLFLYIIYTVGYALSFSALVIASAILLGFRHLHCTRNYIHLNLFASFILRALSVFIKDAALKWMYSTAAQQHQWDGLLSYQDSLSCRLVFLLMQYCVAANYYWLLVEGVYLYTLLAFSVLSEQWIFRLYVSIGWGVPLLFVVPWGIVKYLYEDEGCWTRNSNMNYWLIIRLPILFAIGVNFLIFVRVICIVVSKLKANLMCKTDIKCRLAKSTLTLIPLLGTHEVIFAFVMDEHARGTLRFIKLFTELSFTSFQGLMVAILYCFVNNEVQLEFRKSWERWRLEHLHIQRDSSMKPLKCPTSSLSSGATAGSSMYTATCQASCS

| Compound | Stimulation of lipolysis EC50 [1] | Stimulation of lipolysis EC50 ([1]; listed as exendin-4) | EC50 [2] [nM] | EC50 [3] [nM] | EC50 [1] [nM] | lipolysis potency relative to OXM [1] | body weight gain versus vehicle group ([4]; 2-way ANOVA, p<0.05) | body weight gain ([4]; compared with chow-fed controls) |
| --- | --- | --- | --- | --- | --- | --- | --- | --- |
| Exendin-4 [reference compound] | No effect | no effect | – | – | – | – | – | – |
| H-HSQGTFTSDYSKYLDRARAHDFVAWLKST-NH2 [ZP2648] | – | – | 0.2 | 0.1 | 26 | – | – | – |
| H-HSQGTFTSDYSKYLDRARADDFVAWLKST-NH2 [ZP2495] | – | – | – | – | 137 | equipotent with OXM | statistically significantly less than observed in the vehicle group | decreased body weight gain to a level similar to that observed with chow feeding |
| H-HSQGTFTSDYSKYLDRARADDFVEWLKST-NH2 [ZP2649] | – | – | – | 0.1 | 57 | – | – | – |
| CC(C)C[C@H](NC(=O)[C@H](Cc1c[nH]c2ccccc12)NC(=O)[C@H](C)NC(=O)[C@@H](NC(=O)[C@H](Cc1ccccc1)NC(=O)[C@H](CC(=O)O)NC(=O)[C@H](CC(=O)O)NC(=O)[C@H](C)NC(=O)[C@H](CCCNC(=N)N)NC(=O)[C@H](C)NC(=O)[C@H](CCCNC(=N)N)NC(=O)[C@H](CC(=O)O)NC(=O)[C@H](CC(C)C)NC(=O)[C@H](Cc1ccc(O)cc1)NC(=O)[C@H](CCCCN)NC(=O)[C@H](CO)NC(=O)[C@H](Cc1ccc(O)cc1)NC(=O)[C@H](CC(=O)O)NC(=O)[C@H](CO)NC(=O)[C@@H](NC(=O)[C@H](Cc1ccccc1)NC(=O)[C@@H](NC(=O)CNC(=O)[C@H](CCC(N)=O)NC(=O)[C@@H](CO)NC(=O)[C@@H](N)Cc1c[nH]cn1)[C@@H](C)O)[C@@H](C)O)C(C)C)C(=O)N[C@@H](CCCCN)C(=O)N[C@@H](CO)C(=O)N[C@H](C(N)=O)[C@@H](C)O [ZP2654] (H-H[dS]QGTFTSDYSKYLDRARADDFVAWLKST-NH2) | – | – | 0.5 | 0.8 | 326 | – | – | – |
| H-HSQGTFTSDYSKYLDRARAEDFVAWLKST-NH2 [ZP2637] | – | – | 0.2 | 0.1 | 42 | – | – | – |
| H-HSQGTFTSDYSKYLDRARADDFVAWLKEA-NH2 [ZP2635] | – | – | 0.2 | 0.2 | 93 | – | – | – |
| H-HSQGTFTSDYSKYLDRARADDFVAWLKSA-NH2 [ZP2634] | – | – | 0.5 | 0.2 | 127 | equipotent with OXM | – | – |
| H-HSQGTFTSDYSKYLDRARADDFVAWLERA-NH2 [ZP2650] | – | – | – | 0.8 | 15 | – | – | – |
